#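 Method: 48-hour compound exposure of cells in 96-well plates, five concentrations, linear interpolation of endpoints. GI50 marks 50% less growth.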 Calls of active or inactive are those of the source. Rule as the data show it: active = GI50 up to about 1.1 µM and inactive = higher.
# How the values were obtained:
# Experiment in all cases: NCI-60 cell line screen, 48 h
# A498 = tested on: A498
# A549 = tested on: A549
# CCRF-CEM = tested on: CCRF-CEM
# COLO 205 = tested on: COLO 205
# DLD-1 = tested on: DLD-1
# DMS-114 = tested on: DMS-114
# DMS-273 = tested on: DMS-273
# EKVX = tested on: EKVX
# HCC 2998 = tested on: HCC 2998
# HCT-116 = tested on: HCT-116
# HCT-15 = tested on: HCT-15
# HL-60 = tested on: HL-60
# HOP-18 = tested on: HOP-18
# HOP-62 = tested on: HOP-62
# HOP-92 = tested on: HOP-92
# HT-29 = tested on: HT-29
# IGROV-1 = tested on: IGROV-1
# K562 = tested on: K562
# KM-20L2 = tested on: KM-20L2
# KM12 = tested on: KM12
# LOX IMVI = tested on: LOX IMVI
# M19-MEL = tested on: M19-MEL
# MCF7 = tested on: MCF7
# MOLT-4 = tested on: MOLT-4
# Malme-3M = tested on: Malme-3M
# NCI-H226 = tested on: NCI-H226
# NCI-H23 = tested on: NCI-H23
# NCI-H460 = tested on: NCI-H460
# NCI-H522 = tested on: NCI-H522
# NCI/ADR-RES = tested on: NCI/ADR-RES
# OVCAR-3 = tested on: OVCAR-3
# OVCAR-4 = tested on: OVCAR-4
# OVCAR-5 = tested on: OVCAR-5
# OVCAR-8 = tested on: OVCAR-8
# RPMI-8226 = tested on: RPMI-8226
# RXF 393 = tested on: RXF 393
# SF-268 = tested on: SF-268
# SF-295 = tested on: SF-295
# SF-539 = tested on: SF-539
# SK-MEL-28 = tested on: SK-MEL-28
# SK-MEL-2 = tested on: SK-MEL-2
# SK-MEL-5 = tested on: SK-MEL-5
# SK-OV-3 = tested on: SK-OV-3
# SN12C = tested on: SN12C
# SNB-19 = tested on: SNB-19
# SNB-75 = tested on: SNB-75
# SNB-78 = tested on: SNB-78
# SW-620 = tested on: SW-620
# U-251 = tested on: U-251
# UACC-257 = tested on: UACC-257
# UACC-62 = tested on: UACC-62
# UO-31 = tested on: UO-31
# XF498 = tested on: XF498
# 786-0 = tested on: 786-0
# ACHN = tested on: ACHN
# LXFL 529 = tested on: LXFL 529
# M14 = tested on: M14
# SR = tested on: SR
# TK-10 = tested on: TK-10
structure (smiles),measurement,setting,value
CCCCCOc1ccc(/C=N\c2ccc(-c3ccc(/N=C\c4ccc(OCCCCC)cc4)c(OC)c3)cc2OC)cc1,GI50,A498,> 100 µM (inactive)
same,GI50,A549,> 100 µM (inactive)
same,GI50,CCRF-CEM,> 100 µM (inactive)
same,GI50,COLO 205,> 100 µM (inactive)
same,GI50,DLD-1,> 100 µM (inactive)
same,GI50,DMS-114,> 100 µM (inactive)
same,GI50,DMS-273,> 100 µM (inactive)
same,GI50,EKVX,> 100 µM (inactive)
same,GI50,HCC 2998,> 100 µM (inactive)
same,GI50,HCT-116,> 100 µM (inactive)
same,GI50,HCT-15,> 100 µM
same,GI50,HL-60,> 100 µM (inactive)
same,GI50,HOP-18,24.3 µM (inactive)
same,GI50,HOP-62,> 100 µM (inactive)
same,GI50,HOP-92,> 100 µM (inactive)
same,GI50,HT-29,> 100 µM (inactive)
same,GI50,IGROV-1,> 100 µM (inactive)
same,GI50,K562,> 31.6 µM (inactive)
same,GI50,KM-20L2,> 100 µM (inactive)
same,GI50,KM12,> 100 µM (inactive)
same,GI50,LOX IMVI,> 100 µM (inactive)
same,GI50,M19-MEL,> 100 µM (inactive)
same,GI50,MCF7,> 100 µM (inactive)
same,GI50,MOLT-4,> 100 µM (inactive)
same,GI50,Malme-3M,> 100 µM (inactive)
same,GI50,NCI-H226,> 100 µM (inactive)
same,GI50,NCI-H23,> 100 µM (inactive)
same,GI50,NCI-H460,> 100 µM (inactive)
same,GI50,NCI-H522,> 100 µM (inactive)
same,GI50,NCI/ADR-RES,> 100 µM (inactive)
same,GI50,OVCAR-3,> 66.2 µM (inactive)
same,GI50,OVCAR-4,> 31.6 µM (inactive)
same,GI50,OVCAR-5,> 100 µM (inactive)
same,GI50,OVCAR-8,> 100 µM (inactive)
same,GI50,RPMI-8226,> 100 µM (inactive)
same,GI50,RXF 393,> 100 µM (inactive)
same,GI50,SF-268,> 100 µM (inactive)
same,GI50,SF-295,> 100 µM (inactive)
same,GI50,SF-539,> 100 µM (inactive)
same,GI50,SK-MEL-28,> 100 µM (inactive)
same,GI50,SK-MEL-2,> 100 µM (inactive)
same,GI50,SK-MEL-5,> 100 µM (inactive)
same,GI50,SK-OV-3,> 100 µM (inactive)
same,GI50,SN12C,> 100 µM (inactive)
same,GI50,SNB-19,> 100 µM (inactive)
same,GI50,SNB-75,46.9 µM (inactive)
same,GI50,SNB-78,> 84.9 µM (inactive)
same,GI50,SW-620,> 100 µM (inactive)
same,GI50,U-251,> 100 µM (inactive)
same,GI50,UACC-257,> 100 µM (inactive)
same,GI50,UACC-62,> 100 µM (inactive)
same,GI50,UO-31,> 80.2 µM (inactive)
same,GI50,XF498,> 100 µM (inactive)
CN(C)CCNC(=O)c1cccc2nc(-c3ccccc3)oc12,GI50,A498,27.7 µM (inactive)
same,GI50,A549,42.6 µM (inactive)
same,GI50,CCRF-CEM,45.6 µM (inactive)
same,GI50,COLO 205,17.3 µM (inactive)
same,GI50,DLD-1,31.9 µM (inactive)
same,GI50,DMS-114,47.1 µM (inactive)
same,GI50,EKVX,6.97 µM (inactive)
same,GI50,HCC 2998,54.5 µM (inactive)
same,GI50,HCT-116,32.1 µM (inactive)
same,GI50,HCT-15,43.6 µM
same,GI50,HL-60,8.18 µM (inactive)
same,GI50,HOP-18,> 61.2 µM (inactive)
same,GI50,HOP-62,> 66.7 µM (inactive)
same,GI50,HOP-92,13 µM (inactive)
same,GI50,HT-29,31 µM (inactive)
same,GI50,IGROV-1,44 µM (inactive)
same,GI50,K562,1.94 µM (inactive)
same,GI50,KM-20L2,28.8 µM (inactive)
same,GI50,KM12,53.5 µM (inactive)
same,GI50,LOX IMVI,26.5 µM (inactive)
same,GI50,M19-MEL,33 µM (inactive)
same,GI50,MCF7,14.7 µM (inactive)
same,GI50,MOLT-4,10.9 µM (inactive)
same,GI50,Malme-3M,23.9 µM (inactive)
same,GI50,NCI-H226,29.1 µM (inactive)
same,GI50,NCI-H23,48.3 µM (inactive)
same,GI50,NCI-H460,30.4 µM (inactive)
same,GI50,NCI/ADR-RES,42.9 µM (inactive)
same,GI50,OVCAR-3,41.9 µM (inactive)
same,GI50,OVCAR-4,26.5 µM (inactive)
same,GI50,OVCAR-5,38.5 µM (inactive)
same,GI50,OVCAR-8,35.9 µM (inactive)
same,GI50,RPMI-8226,34.6 µM (inactive)
same,GI50,RXF 393,32.2 µM (inactive)
same,GI50,SF-268,> 64.6 µM (inactive)
same,GI50,SF-295,31.3 µM (inactive)
same,GI50,SF-539,49.9 µM (inactive)
same,GI50,SK-MEL-28,60.1 µM (inactive)
same,GI50,SK-MEL-2,> 62.5 µM (inactive)
same,GI50,SK-MEL-5,22.3 µM (inactive)
same,GI50,SK-OV-3,34.4 µM (inactive)
same,GI50,SN12C,41.1 µM (inactive)
same,GI50,SNB-19,19.7 µM (inactive)
same,GI50,SNB-75,13.5 µM (inactive)
same,GI50,SNB-78,> 72.6 µM (inactive)
same,GI50,SW-620,39.2 µM (inactive)
same,GI50,U-251,46.9 µM (inactive)
same,GI50,UACC-257,36.3 µM (inactive)
same,GI50,UACC-62,31.5 µM (inactive)
same,GI50,UO-31,17.4 µM (inactive)
same,GI50,XF498,34.3 µM (inactive)
Cc1cc2oc(=O)[nH]c(=S)c2c(C)c1C,GI50,786-0,> 100 µM (inactive)
same,GI50,A498,> 100 µM (inactive)
same,GI50,A549,> 100 µM (inactive)
same,GI50,ACHN,> 100 µM (inactive)
same,GI50,CCRF-CEM,> 100 µM (inactive)
same,GI50,COLO 205,> 100 µM (inactive)
same,GI50,DMS-114,> 100 µM (inactive)
same,GI50,DMS-273,> 100 µM (inactive)
same,GI50,EKVX,48.2 µM (inactive)
same,GI50,HCC 2998,> 100 µM (inactive)
same,GI50,HCT-116,> 100 µM (inactive)
same,GI50,HCT-15,> 100 µM
same,GI50,HL-60,> 100 µM (inactive)
same,GI50,HOP-18,> 100 µM (inactive)
same,GI50,HOP-62,> 100 µM (inactive)
same,GI50,HOP-92,> 100 µM (inactive)
same,GI50,HT-29,> 100 µM (inactive)
same,GI50,IGROV-1,> 100 µM (inactive)
same,GI50,K562,> 100 µM (inactive)
same,GI50,KM-20L2,> 100 µM (inactive)
same,GI50,KM12,> 100 µM (inactive)
same,GI50,LOX IMVI,> 100 µM (inactive)
same,GI50,LXFL 529,> 100 µM (inactive)
same,GI50,M14,> 100 µM (inactive)
same,GI50,M19-MEL,> 100 µM (inactive)
same,GI50,MOLT-4,> 100 µM (inactive)
same,GI50,Malme-3M,> 100 µM (inactive)
same,GI50,NCI-H226,> 100 µM (inactive)
same,GI50,NCI-H23,> 100 µM (inactive)
same,GI50,NCI-H460,> 100 µM (inactive)
same,GI50,NCI-H522,> 100 µM (inactive)
same,GI50,OVCAR-3,> 100 µM (inactive)
same,GI50,OVCAR-4,45.2 µM (inactive)
same,GI50,OVCAR-8,> 100 µM (inactive)
same,GI50,RPMI-8226,> 100 µM (inactive)
same,GI50,RXF 393,> 100 µM (inactive)
same,GI50,SF-268,> 100 µM (inactive)
same,GI50,SF-295,> 100 µM (inactive)
same,GI50,SF-539,> 100 µM (inactive)
same,GI50,SK-MEL-28,> 100 µM (inactive)
same,GI50,SK-MEL-2,> 100 µM (inactive)
same,GI50,SK-OV-3,> 100 µM (inactive)
same,GI50,SN12C,> 100 µM (inactive)
same,GI50,SNB-19,> 100 µM (inactive)
same,GI50,SNB-75,> 100 µM (inactive)
same,GI50,SR,> 100 µM (inactive)
same,GI50,SW-620,> 100 µM (inactive)
same,GI50,TK-10,> 100 µM (inactive)
same,GI50,U-251,> 100 µM (inactive)
same,GI50,UACC-257,> 100 µM (inactive)
same,GI50,UACC-62,> 100 µM (inactive)
same,GI50,UO-31,> 100 µM (inactive)
same,GI50,XF498,> 100 µM (inactive)
